Measured values: patent EP3006026A1, “PHARMACEUTICAL COMPOSITION FOR TREATING ANXIETY CONTAINING L-THEANINE AND BAICALEIN” (FB HEALTH S.P.A., priority 2014, dated 2016)

Tests used:
[1] = test system: murine model of anxiety; assay: elevated maze plus (EPM) test, murine model of anxiety; assay type: in vivo, mice; details: 60 minutes prior to maze; for time in percentage on the open arms: 10 mg/kg p.o.; for percentage of time spent on the closed arms: compared to the control, 6 minutes observation
Method: The activity of a combination of L-theanine and baicalein was tested in a murine model of anxiety.
The mice were assigned randomly to different treatment groups and subjected to tests in a variable order.
Diazepam (Hoffmann - La Roche) was used as reference product. The diazepam was diluted to a concentration of 1.5 mg/10 ml with deionised water (Millipore quality) containing propylene glycol 0.5% (Sigma-Aldrich). Two different doses (10 mg/kg and 25 mg/kg) of bot. baicalein and L-theanine were prepared dissolving the powder in 10 ml of deionised water with propylene glycol 0.5%. All the solutions were prepared the same day as the tests and administered orally (p.o.) in a volume of 10 ml/kg by body weight of the mice. The control animals received a solution of propylene glycol 0.5%.
The animals of the experiment were treated orally with a carrier, diazepam (1.5 mg/kg, n=8), L-theanine (10 mg/kg, 25 mg/kg, n=8), baicalein (10 mg/kg, 25 mg/kg, n=8) or L-theanine + baicalein, in a ratio 1/1 (10 mg/kg, 25 mg/kg, n=8), 60 minutes prior to evaluation in the maze.
Anxiolytic activity was evaluated using the elevated maze plus (EPM) test. [ ]. The maze was composed of two open arms (31 cm x 5 cm x 1 cm) and two closed arms (31 cm x 5 cm x 15 cm) that extended from a central platform (5 cm x 5 cm) raised to a height of 40 cm from the floor. On the wooden base frame, the closed arms were made of opaque grey plastic, while the open arms were made of the same material with only one slightly raised edge. The EPM was indirectly illuminated by three 40W bulbs.
(§1) The mice were placed individually at the centre of the maze facing a closed arm and the number of entries and the time spent in the closed and open arms during an observation period of 6 minutes was recorded. Entries to the arms were defined as the entry of all four paws into an arm [ ]. The time in percentage spent on the open arms (100 x open/total time) was calculated for each animal. We also used the open field test to evaluate possible sedative or stimulating activity of the animals [ ]. The open field consisted of a rectangular opaque grey plastic arena (width 30 cm, length 27 cm, height 30 cm) and was illuminated by six 40W bulbs. The floor of the arena was divided into 6 equidistant rectangles to evaluate the number of times the lines were crossed. Groups of 8 mice were treated with diazepam (1.5 mg/kg, 3 mg/kg p.o.), L-theanine (25 mg/kg, 50 mg/kg n=8), baicalein (25 mg/kg, 50 mg/kg, n=8) or L-theanine + baicalein, in a 1/1 ratio (25 mg/kg, 50 mg/kg, n=8) or a carrier (deionised water with propylene glycol at 0.5% p.o.). All the solutions contained propylene glycol at 0.5% as solubilising substance for diazepam. 60 minutes after oral administration, each mouse was placed at the centre of the arena and recorded for 5 minutes.
The EPM and the open field test were both video recorded using a high resolution video camera WV-CP244 (Panasonic).
Statistical analysis of the data was performed using one-way analysis of variance (ANOVA) followed by the Student-Newman-Keuls multiple comparison test. In all cases the differences were considered significant if p < 0.05.

[2] = test system: mice; assay: open field test for sedative or stimulating activity; assay type: in vivo; details: 60 minutes after administration, recorded 5 minutes
Method: as §1, with “Groups of 8 mice were treated with diazepam (1.5 mg/kg, 3 mg/kg p.o.), L-theanine (25 mg/kg, 50 mg/kg n=8), baicalein (25 mg/kg, 50 mg/kg, n=8) or L-theanine + baicalein, in a 1/1 ratio (25 mg/kg, 50 mg/kg, n=8) or a carrier (deionised water with propylene glycol at 0.5% p.o.). All the solutions contained propylene glycol at 0.5% as solubilising substance for diazepam.” left out
The EPM and the open field test were both video recorded using a high resolution video camera WV-CP244 (Panasonic). The videos were analysed using the TopScan Top View Animal Behaviour Analyzing System (version 1.00; Clever Sys Inc.) by an impartial person who has no knowledge of the treatment. […]

| SMILES | time in percentage on the open arms [1] | percentage of time spent on the closed arms ([1]; 25 mg/kg p.o.) | number of entries to the open arms ([1]; diazepam 1.5 mg/kg p.o.) | percentage of time spent on the closed arms ([1]; diazepam 1.5 mg/kg p.o.) | sedation in the open field test ([2]; 1.5 mg/kg p.o.) | sedation in the open field test ([2]; 3 mg/kg p.o.) |
| --- | --- | --- | --- | --- | --- | --- |
| CCNC(=O)CC[C@H](N)C(=O)O [L-theanine, N-ethyl-L-glutamine] | did not show any increase | significant increase | – | – | – | – |
| O=c1cc(-c2ccccc2)oc2cc(O)c(O)c(O)c12 [baicalein, 5,6,7-trihydroxy-2-phenyl-chromen-4-one] | did not show any increase | significant increase | – | – | – | – |
| CN1C(=O)CN=C(c2ccccc2)c2cc(Cl)ccc21 [diazepam] | – | – | greater | significant increase | caused significant sedation | caused significant sedation |
